Laboratory results: patent publication US11035008B2, “Biomarkers for cancer” (BERGENBIO ASA, priority 2015, dated 2021)
“Also recorded” adds a separate entry of the source.

Columns and labels:
PHGDH = test: Microarray analysis of xenograft material, PHGDH transcript; type: in vivo, mice
From the text: PHGDH was included in the biomarker panel following microarray analysis of Mv4-11 and MOLM13 xenograft material after BGB324-treatment.

totSLFN11 = test: Total SLFN11 in AML cell panel, long-term treatment, flow cytometry; type: cell-based, human
Procedure: (§1) Staining of Cells for Flow Cytometry, General Protocol: • Live cells were centrifuged at 300 G for 5 minutes, washed once with PBS and centrifuged again. Cells were then fixed in 4% PFA in PBS for 10 minutes at 37° C., and resuspended in PBS. Unless processed immediately, samples were at this point stored in PBS at 4° C. (up to three weeks) or at −80° C. (for long-term storage). If intracellular epitopes were stained, cells were permebealized in 90% MeOH for 30 minutes on ice. Unless processed immediately, samples were also be stored in 90% MeOH at −20° C. for up to two months. • Further staining procedure (permebealized or non-permebealized cells): • Cells were washed 1× in PBS and blocked in blocking buffer; either PBS+0.5% BSA or PBS+1:1000 Octagam (5 mg/ml) for 15 minutes at room temperature. Thereafter, cells were incubated with primary AB at the indicated dilutions in incubation buffer (IB, PBS+0.5% BSA) for 1 hour at room temperature. Cells were then washed 3× with IB and incubated with secondary AB (conjugated to a fluorescent flurophore) at 1:1000 dilution in IB for 30 minutes at room temperature. Finally, cells were washed 3× in IB and resuspended in PBS. Cells were analyzed immediately, or stored for up to 24 hours at 4° C. before analysis. • Analysis of cells was done on a BD LSR Fortessa or a BD C6 Accuri flow cytometer, and further processing was done using FlowJo v.7.6. • All incubation steps (but not storage) were done on a spinning wheel or gentle shaker.
(§2) The diversity of AML cells and their responses was investigated using a panel of AML cell lines and assessing their responses after BGB324-treatment.
Long-term treatment was done in complete medium, without starvation. The responders were treated with 0.05, 0.1 or 0.3 μM BGB324, whereas the non-responders were treated with only a single dose of 2.5 μM BGB324. The cells were fixed after 24, 48 or 72 hours, and the samples were stored in 90% MeOH at −20° C. until all samples were harvested, and stained for flow at the same time.

MOLM13 cells = test: IC50 of BGB324 by resazurin assay, MOLM13; type: cell-based; settings: Homo sapiens, MOLM-13, MOLM13 (responder)
From the text: as §2

total Axl = test: Total Axl by flow cytometry in MOLM13 cells (Example 2); type: cell-based, human; settings: MOLM13 starved, 3 μM, 40 minutes
Procedure: as §1, with “Cells were then washed 3× with IB and incubated with secondary AB (conjugated to a fluorescent flurophore) at 1:1000 dilution in IB for 30 minutes at room temperature. Finally, cells were washed 3× in IB and resuspended in PBS.” left out, “shaker. […]” for “shaker.”

pAkt(S473) = pAkt(S473) by flow cytometry in MOLM13 cells (Example 1); type: cell-based, human
Procedure: as §1
MOLM13 cells were treated with BGB324 at different doses, and phosphorylation of Akt at the S473 phosphorylation site was assessed using a pAkt (S473) XP antibody from Cell Signaling Technology (#4060, BGB #109). Due to previous experience using this AB for flow, the AB was not titrated, but used at the concentration recommended by the manufacturer for flow cytometry.
MOLM13 cells were cultured in starvation medium (RPMI, 0.1% FBS) over night, pre-treated with BGB324 at 3 μM for 20 minutes, and thereafter stimulated with 10% FBS for 20 minutes (+/−BGB324) to induce Akt phosphorylation. […]

pAxl(Y779) = pAxl(Y779) by flow cytometry in MOLM13 cells (Example 2); type: cell-based, human
Procedure: as §1
MOLM13 cells were cultured in starvation medium (RPMI, 0.1% FBS) over night and treated with BGB324 at 3 μM for a total of 40 minutes. […] Cells were co-stained with pAxl(Y779) and tAxl (1H12) antibodies. […] When gating for Axl-expressing cells, we saw that the reduction of pAxl signal was only seen in Axl-positive cells, showing that the pAxl antibody appears to be Axl-specific (see FIG. 3).
pAxl was further assessed pAxl by, in the same experimental conditions, examining for phosphorylation of Akt (see above, and FIG. 2), comparing starvation with non-starved cells, and using MOLM13 wt, shAxl and shLuc (cells were co-stained with antibodies for both pAkt and pAxl). MOLM13shAxl were used as a negative control, to separate between background binding of the antibodies and the “real” pAxl-signal. In cells that were not starved, only a slight inhibition of pAxl after treatment was found (around 20% at 3 μM BGB324 dose).

SLFN11 = test: Microarray analysis of xenograft material, SLFN11 transcript; type: in vivo, mice
From the text: Slfn11 was included in the biomarker panel following microarray analysis of Mv4-11 and MOLM13 xenograft material after BGB324-treatment.

Kasumi cells = test: IC50 of BGB324 by resazurin assay, Kasumi; type: cell-based; settings: Homo sapiens, Kasumi (non-responder)
From the text: as §2

OCI-M1 cells = test: IC50 of BGB324 by resazurin assay, OCI-M1; type: cell-based; settings: Homo sapiens, OCI-M1 (non-responder)
From the text: as §2

[1] = Mv4-11 subcutaneous xenograft, 14 days of treatment

In the case of Nc1nc(Nc2ccc3c(c2)CC[C@@H](N2CCCC2)CC3)nn1-c1cc2c(nn1)-c1ccccc1CCC2 [BGB324, 1-(6,7-dihydro-5H-benzo[6,7]cyclohepta[1,2-c]pyridazin-3-yl)-N3-((7-(S)-pyrrolidin-1-yl)-6,7,8,9-tetrahydro-5H-benzo[7]annulene-2-yl)-1H-1,2,4-triazole-3,5-diamine], the “PHGDH transcript (microarray)” value (PHGDH; MOLM13 systemic xenograft model, spleen and bone marrow) is reported as “significantly downregulated; also recorded: significantly reduced”, the “PHGDH transcript (microarray)” value (PHGDH; [1]) is reported as “one of the most significantly downregulated transcripts; also recorded: significantly downregulated” and the “PHGDH transcript alteration after treatment (microarray)” value (PHGDH; both Mv4-11 subcutaneous and MOLM13 systemic xenograft models) is reported as “more than 1.5 fold”. The SLFN11 expression (totSLFN11; Kasumi, 2.5 μM, 24 and 48 hours) was “no significant differences”, the SLFN11 expression (totSLFN11; Kasumi, 2.5 μM, 72 hours) was “significant increase of SLFN11 expression” and the “total protein expression of SLFN11” value (totSLFN11; MOLM13, 0.3 μM, 24, 48 and 72 hours) was “significant reduction”. For the same molecule, the “total protein expression of SLFN11” value (totSLFN11; Mv4-11, 0.1 uM, 72 hours) was “significantly reduced”, the “total protein expression of SLFN11” value (totSLFN11; Mv4-11, 0.3 μM, 24, 48 and 72 hours) was “significant reduction” and the SLFN11 expression (totSLFN11; OCI-AML5, 2.5 μM, 24 and 48 hours) was “no significant differences”. The SLFN11 expression (totSLFN11; OCI-AML5, 2.5 μM, 72 hours) was “significant increase of SLFN11 expression”, the IC50 (MOLM13 cells) was 0.45 µM and the “Total Axl expression” value (total Axl) was “did not change”. For the same molecule, the “pAkt in shAxl-expressing cells” value (pAkt(S473); MOLM13 shAxl (Axl knockdown), 0.1-3 μM) was “inhibition of pAkt was also seen”, the “Akt(S473) phosphorylation” value (pAkt(S473); MOLM13 starved over night, 3 μM, presence and absence of 10% FBS) was “potently inhibited” and the pAkt dose-response (pAkt(S473); MOLM13 wt, shLuc, shAxl, 0.1-3 μM, starved and non-starved) was “potent dose-dependent reduction of pAkt”. The inhibition at 3 µM (pAxl(Y779); Homo sapiens, MOLM-13, MOLM13 not starved (wt, shLuc, shAxl same)) was about 20%, the “inhibition of pAxl” value (pAxl(Y779); MOLM13 shAxl, pre-starved, 3 μM) was “approximately 20%” and the “pAxl(Y779)” value (pAxl(Y779); MOLM13 starved, 3 μM, 40 minutes) was “slight decrease in pAxl; also recorded: modest reduction of pAxl”. The “total reduction of pAxl” value (pAxl(Y779); MOLM13 wt and shLuc, pre-starved, 3 μM) was 40%, the “SLFN11 transcript (microarray)” value (SLFN11; MOLM13 systemic xenograft model) was “not significantly reduced” and the “SLFN11 transcript (microarray)” value (SLFN11; [1]) was “one of the most significantly downregulated transcripts”. For the same molecule, the “SLFN11 transcript (microarray)” value (SLFN11; Mv4-11 xenograft, single dose 100 mg/kg, 24 hours after treatment) was “significantly downregulated”, the IC50 (Kasumi cells) was 1.2 µM and the IC50 (OCI-M1 cells) was 1.8 µM.
